Test results: EP0908457B1, “3-(1,2-benzisothiazol- and isoxazol-5-Y1)-2,4(1H,3H)-pyrimidinedione or thione and 3-(1,2-benzisothiazol- and isoxazol-5-y1)-4(3H)-pyrimidinone or thione herbicidal agents” (BASF AKTIENGESELLSCHAFT, priority 1997, dated 1999)

How the values were obtained:
[1] = tested on: Echinochloa oryzoides (Ard.) Fritsch.; assay: Preemergence weed control under flooded paddy conditions, ECHORC (Watergrass (Calif.)); format: in vivo; settings: preemergence, flooded paddy, rated three to four weeks after treatment
[2] = tested on: Cyperus iria; assay: Preemergence weed control under flooded paddy conditions, CYPIR (Rice Flatsedge); format: in vivo; settings: preemergence, flooded paddy, rated three to four weeks after treatment
[3] = tested on: Cyperus serotinus, Rottb.; assay: Preemergence weed control under flooded paddy conditions, CYPSE (Flatsedge); format: in vivo; settings: preemergence, rated three to four weeks after treatment
[4] = tested on: Monochoria vaginalis, Presl.; assay: Preemergence weed control under flooded paddy conditions, MOOVA (Monochoria); format: in vivo; settings: preemergence, flooded paddy, rated three to four weeks after treatment
[5] = tested on: Sagittaria pygmaea, L.; assay: Preemergence weed control under flooded paddy conditions, SAGPY (Arrowhead (Pygmaea)); format: in vivo; settings: preemergence, flooded paddy, rated three to four weeks after treatment
[6] = tested on: Oryza sativa, (L.) Tebonnet; assay: Rice tolerance to post-transplant applications under flooded paddy conditions (Example 187), ORYSAT (Rice, Tebonnet); settings: rated three to four weeks after treatment
Note: meaning of each grade not given here.

Row | SMILES | herbicidal effect rating, ECHORC ([1]; Rate 0.0320 kg/ha) | herbicidal effect rating, ECHORC ([1]; Rate 0.0620 kg/ha) | herbicidal effect rating, ECHORC ([1]; Rate 0.1250 kg/ha) | herbicidal effect rating, ECHORC ([1]; Rate 0.2500 kg/ha) | herbicidal effect rating, CYPIR ([2]; Rate 0.0320 kg/ha) | herbicidal effect rating, CYPIR ([2]; Rate 0.0620 kg/ha) | herbicidal effect rating, CYPIR ([2]; Rate 0.1250 kg/ha) | herbicidal effect rating, CYPIR ([2]; Rate 0.2500 kg/ha) | herbicidal effect rating, CYPSE ([3]; Rate 0.0320 kg/ha) | herbicidal effect rating, CYPSE ([3]; Rate 0.0620 kg/ha) | herbicidal effect rating, CYPSE ([3]; Rate 0.1250 kg/ha) | herbicidal effect rating, CYPSE ([3]; Rate 0.2500 kg/ha) | herbicidal effect rating, MOOVA ([4]; Rate 0.0320 kg/ha) | herbicidal effect rating, MOOVA ([4]; Rate 0.0620 kg/ha) | herbicidal effect rating, MOOVA ([4]; Rate 0.1250 kg/ha) | herbicidal effect rating, MOOVA ([4]; Rate 0.2500 kg/ha) | herbicidal effect rating, SAGPY ([5]; Rate 0.0320 kg/ha) | herbicidal effect rating, SAGPY ([5]; Rate 0.0620 kg/ha) | herbicidal effect rating, SAGPY ([5]; Rate 0.1250 kg/ha) | herbicidal effect rating, SAGPY ([5]; Rate 0.2500 kg/ha) | other results
1 | C=CCC(C#N)(CC=C)c1nsc2ccc(-n3c(=O)cc(C(F)(F)F)n(C)c3=O)cc12 [Example 580, 1,2-Benzisothiazole-3-acetonitrile, alpha,alpha-diallyl-5-[3,6-dihydro-3-methyl-2,6-dioxo-4-(trifluoromethyl)-1(2H)-pyrimidinyl]-] | 8.5 | 9.0 | 9.0 | 9.0 | 3.0 | 9.0 | 9.0 | 9.0 | 5.5 | 9.0 | 9.0 | 8.5 | 4.5 | 9.0 | 9.0 | 9.0 | 5.5 | 8.0 | 8.0 | 8.5 | herbicidal effect rating ORYSAT ([6]; Rate 0.0320 kg/ha): 1.5; herbicidal effect rating ORYSAT ([6]; Rate 0.0620 kg/ha): 4.0; herbicidal effect rating ORYSAT ([6]; Rate 0.1250 kg/ha): 4.0; herbicidal effect rating ORYSAT ([6]; Rate 0.2500 kg/ha): 6.5
2 | C#CCC(C#N)(CC#C)c1nsc2ccc(-n3c(=O)cc(C(F)(F)F)n(C)c3=O)cc12 [Example 581, 1,2-Benzisothiazole-3-acetonitrile, 5-[3,6-dihydro-3-methyl-2,6-dioxo-4-(trifluoromethyl)-1(2H)-pyrimidinyl]-alpha,alpha-di-2-propynyl-] | 6.0 | 8.5 | 9.0 | 9.0 | 3.0 | 4.5 | 9.0 | 9.0 | 1.0 | 1.5 | 6.0 | 8.0 | 4.5 | 4.5 | 9.0 | 9.0 | 3.0 | 9.0 | 9.0 | 9.0 | herbicidal effect rating ORYSAT ([6]; Rate 0.0320 kg/ha): 1.5; herbicidal effect rating ORYSAT ([6]; Rate 0.0620 kg/ha): 3.5; herbicidal effect rating ORYSAT ([6]; Rate 0.1250 kg/ha): 6.0; herbicidal effect rating ORYSAT ([6]; Rate 0.2500 kg/ha): 7.0
3 | Cn1c(C(F)(F)F)cc(=O)n(-c2ccc3snc(C(C#N)(Cc4ccccc4)Cc4ccccc4)c3c2)c1=O [Example 582, 1,2-Benzisothiazole-3-acetonitrile, alpha,alpha-dibenzyl-5-[3,6-dihydro-3-methyl-2,6-dioxo-4-(trifluoromethyl)-1(2H)-pyrimidinyl]-] | 6.0 | 7.0 | 7.0 | 9.0 | 3.0 | 4.0 | 6.0 | 6.0 | 0.0 | 0.0 | 0.0 | 7.0 | 7.0 | 7.0 | 7.0 | 7.0 | 5.0 | 5.0 | 6.0 | 6.0 | herbicidal effect rating ORYSAT ([6]; Rate 0.0320 kg/ha): 0.0; herbicidal effect rating ORYSAT ([6]; Rate 0.0620 kg/ha): 0.0; herbicidal effect rating ORYSAT ([6]; Rate 0.1250 kg/ha): 0.0; herbicidal effect rating ORYSAT ([6]; Rate 0.2500 kg/ha): 3.0
